The test has as its target T1, 20S proteasome (CT-like peptidase, β5 subunit) (Homo sapiens, UniProt P28074).
T1 construct: gene PSMB5; purified 20S proteasome; with 20S proteasome
T1 sequence (P28074 60-263): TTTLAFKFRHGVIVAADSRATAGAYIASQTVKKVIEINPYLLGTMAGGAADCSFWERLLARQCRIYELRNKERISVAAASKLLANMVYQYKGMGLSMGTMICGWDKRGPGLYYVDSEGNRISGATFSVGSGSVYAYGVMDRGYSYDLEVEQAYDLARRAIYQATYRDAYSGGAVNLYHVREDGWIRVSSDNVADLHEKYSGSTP
Put plainly: fluorogenic CT-like peptidase assay with purified […] proteasome. Format: biochemical.

Consider `[O-][n+]1ccccc1[S][Cu][S]c1cccc[n+]1[O-]` [L1, CuPT], for which the IC50 is approximately 6 µM.
